Legend:
MC38 murine tumor = test: d-μOCT and CC3 IHC of freshly excised MC38 tumor treated with a drug-containing IMD; type: in vivo; conditions: IMD containing doxorubicin, 6 hrs; mid frequency Blue 0.47-0.63 Hz
Procedure: Dynamic-μOCT has been applied to human biopsies and chemotherapy-treated tumors grown in mouse models. In human biopsies, it is possible to use d-μOCT to distinguish microscopic features (e.g. cell nuclei, organelles, and cell membranes), cellular structures (e.g. squamous, glandular, inflammatory cells), and different cell types that were not evident in corresponding regular μOCT images. Ex vivo experiments were also performed using tumors grown with human cell lines. Custom microdevices containing small amounts of chemotherapeutic drugs were inserted into the tumors. For example, effects of intra-tumoral apoptosis were distinguished with d-μOCT and confirmed with histology images stained with cleaved caspase-3 (CC3), an apoptosis marker.
Panel (B) is from the same location in the sample. d-μOCT color codes: Red 0-0.08 Hz, Blue 0.47-0.63 Hz, Green 3.98-20 Hz. Bars, 200 μm.
d-μOCT enables high contrast, subcellular, cross-sectional motility imaging of intact human and animal tissues ex vivo. d-μOCT data (FIGS. 7, 9-16) were obtained using a μOCT benchtop system microscope that employs a supercontinuum-illuminated, common path, spectral domain OCT (SDOCT) system to obtain cross-sectional images with a resolution of 2 μm×2 μm (lateral)×1 μm (axial). The depth of focus was 300 μm, extended by annular apodization of the sample arm's objective lens. […]

[1] = test system: freshly excised murine liver; test: d-μOCT imaging of freshly excised murine liver in blebbistatin; type: cell-based; conditions: 30 μM blebbistatin, t=40 minutes vs t=0; Red 0-0.08 Hz, Green 3.98-20 Hz
Description: d-μOCT enables high contrast, subcellular, cross-sectional motility imaging of intact human and animal tissues ex vivo. d-μOCT data (FIGS. 7, 9-16) were obtained using a μOCT benchtop system microscope that employs a supercontinuum-illuminated, common path, spectral domain OCT (SDOCT) system to obtain cross-sectional images with a resolution of 2 μm×2 μm (lateral)×1 μm (axial). The depth of focus was 300 μm, extended by annular apodization of the sample arm's objective lens. Images were acquired at an A-line (depth resolved reflectivity profile) rate of 20 KHz and spanned 1 mm laterally. All tissues samples were imaged fresh in culture media (10% FBS/DMEM+1% pen-strep) at 25° C. Two scan modes were used: 1) N=1000 images (512 A-lines/image) acquired sequentially over a period of 25 seconds (FIG. 8, scan mode 1) or 2) N=1000 A-lines acquired sequentially at each lateral scan point (FIG. 8, scan mode 2). Following local elastic unwarping to remove bulk motion caused by evaporation or vibration, a power spectrum estimate (periodogram) was computed on a pixel-per-pixel basis using Welch's method and frequency normalization. For scan mode 1, to represent the data in a single image, low (−0-0.1 Hz), middle (−0.5-0.7 Hz) and high (−4-20 Hz) frequency component images were merged into the RGB channels of a 24-bit color image. […]

Row | SMILES | d-μOCT frequency content compared with cleaved caspase-3 (CC3) IHC (MC38 murine tumor) | change in d-μOCT intracellular motion frequency content [1]
1 | COc1cccc2c1C(=O)c1c(O)c3c(c(O)c1C2=O)C[C@@](O)(C(=O)CO)C[C@@H]3O[C@H]1C[C@H](N)[C@H](O)[C@H](C)O1 [doxorubicin] | diffuse region of mid-frequency content (arrow) that mirrors cleaved caspase-3 (CC3) IHC | 
2 | Cc1ccc2c(c1)C(=O)C1(O)CCN(c3ccccc3)C1=N2 (centres unmarked) [blebbistatin] |  | dramatic reduction in high frequency (green) and increase in low frequency (red) intracellular motion
